Laboratory results published in PMC4747952, “Development of TASP0410457 (TASP457), a novel dihydroquinolinone derivative as a PET radioligand for central histamine H3 receptors” (EJNMMI Research, 2016).

Tests used:
H3Rs [1] = test: PET in anesthetized rhesus monkeys with arterial blood sampling; format: in vivo, rhesus monkey; conditions: for V T, Logan graphical analysis, Scan duration 60 min / V T, Logan graphical analysis, Scan duration 70 min / V T, Logan graphical analysis, Scan duration 80 min / V T, Logan graphical analysis, Scan duration 90 min / V T, One-tissue compartment model, Scan duration 90 min: Mean ± S.D., n = 3
Procedure: For a detailed pharmacokinetic PET study using [^11C]TASP0410457 with arterial blood sampling, three male rhesus monkeys weighing 5–7 kg were scanned with the SHR-7700 PET camera. The monkeys were initially anesthetized with an intramuscular injection of ketamine (10 mg/kg), intubated, and subsequently kept anesthetized with 1–2 % isoflurane. Electrocardiogram and blood oxygen saturation levels were monitored, and body temperature was maintained by a heating pad throughout the experiment. Arterial blood (1–2.5 mL) was collected from the saphenous artery at 10, 20, 30, 40, 50, 60, and 90 s and at 2, 3, 4, 5, 10, 15, 30, 60, and 90 min after the intravenous injection of [^11C]TASP0410457 (injected radioactivity, 159 ± 30 MBq; mass dose, 1.2 ± 0.3 μg; mean ± S.D., n = 3).
The arterial blood was centrifuged at 20,000×g for 3 min at 4 °C to separate the plasma. Radioactivity in total blood and plasma was determined using a 1480 WIZARD gamma counter (PerkinElmer), and was decay-corrected to the injection time. Arterial plasma collected at 1, 5, 15, 30, 60, and 90 min was used to analyze radioactive metabolites of [^11C]TASP0410457. Two hundred microliters of plasma was mixed with 200 μL of ice-cold acetonitrile, and the mixtures were centrifuged at 20,000×g for 3 min at 4 °C. Fifty to […] of the resultant supernatants were separated using HPLC (JASCO, Tokyo, Japan) on an Atlantis T3 column (4.6 × 50 mm, Waters, Milford, MA) with a mobile phase consisting of 10 mM of ammonium acetate/acetonitrile (68:32) at a flow rate of 1 mL/min. The fraction of unmetabolized [^11C]TASP0410457 was determined by measuring the areas of the HPLC peaks corresponding to [^11C]TASP0410457 and its radiometabolites.
Emission scan images were reconstructed using a 4.0-mm Colsher filter. ROIs were placed on the anterior cingulate cortex, striatum, thalamus, hippocampus, cerebellum, frontal cortex, temporal cortex, occipital cortex, and pons-medulla using PMOD software, with reference to an MRI template as described previously. Tissue TACs were generated as in the rat PET image analysis.
For PET study in anesthetized monkeys, metabolite-corrected plasma TACs were used as arterial input functions. The regional total volume of distribution (VT) was estimated by Logan’s graphical plot and one-tissue compartment model using PMOD software.

H3Rs [2] = biological target: T1, H3Rs (Rattus norvegicus, UniProt Q9QYN8); test: In vitro autoradiography, rat brain sections; format: binding; conditions: 5 nM radioligand
T1 construct: from tissue; host or cells: sagittal rat brain sections
T1 sequence (Q9QYN8 whole entry): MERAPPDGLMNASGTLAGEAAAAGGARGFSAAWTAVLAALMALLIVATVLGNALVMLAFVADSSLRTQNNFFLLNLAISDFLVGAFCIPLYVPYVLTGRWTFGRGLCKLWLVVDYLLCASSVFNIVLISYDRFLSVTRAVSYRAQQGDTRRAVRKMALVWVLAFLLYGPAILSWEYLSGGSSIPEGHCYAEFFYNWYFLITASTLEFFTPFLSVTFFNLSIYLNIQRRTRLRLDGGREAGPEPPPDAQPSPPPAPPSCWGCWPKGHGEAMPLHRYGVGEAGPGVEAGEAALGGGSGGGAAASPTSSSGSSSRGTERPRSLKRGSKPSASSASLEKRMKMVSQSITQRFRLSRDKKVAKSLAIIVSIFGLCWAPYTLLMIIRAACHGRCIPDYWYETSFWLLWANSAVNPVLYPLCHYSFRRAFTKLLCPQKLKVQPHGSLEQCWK
Procedure: (§1) Twenty-micrometer-thick sagittal rat and monkey brain sections were incubated in an autoradiography buffer containing 5 nM [^11C]TASP0410457 as described in Additional file 1: Supplemental methods. The binding was also performed in the presence of 10 μM of unlabeled TASP0410457, thioperamide, or ciproxifan for the rat sections and 10 μM of TASP0410457 or ciproxifan for the monkey sections to assess the specific radioligand binding.
(§2) (25:75) at a flow rate of 1 mL/min. A representative chromatogram of [11C]TASP0390136 is shown in […]
(§3) Twenty-micrometer-thick sagittal rat brain sections were pre-incubated with autoradiography buffer (50 mM Tris containing 120 mM NaCl, 2 mM KCl, 1 mM MgCl2, and 1 mM CaCl2, pH7.4) for 30 min, then incubated in the autoradiography buffer containing 5 nM [11C]TASP0410457 at 25°C for 1 h. The sections were washed two times with ice-cold autoradiography buffer for 5 min, rinsed with ice-cold water for 10 s, and then quickly dried. The radioactivity retained on the sections was determined using a BAS imaging plate and the BAS5000 system (GE Healthcare, Piscataway, NJ). For a blocking study, brain slices were reacted with [11C]TASP0410457 in the presence of […] of TASP0410457, thioperamide, or ciproxifan.
(§4) Similarly, autoradiography using […] sagittal rhesus monkey brain sections was conducted. […]

[3] = Radiochemical stability in the final formulation; format: physicochemical; conditions: at 1 h after the end of radiosynthesis
Procedure: [^11C]TASP0390136, [^11C]TASP0410457, and [^11C]TASP0434988 were synthesized as shown in Fig. 1a–c (detailed procedures are described in Additional file 1: Supplemental methods) using a homemade automated synthesis system. The radiochemical purities and specific activities of the radioligands, which were analyzed as described in Additional file 1: Supplemental Methods, along with their radiochemical yields and average synthesis times, are summarized in Table 1. Analytical HPLC chromatogram of each radioligand is shown in Additional file 2-4: Figures S1-S3. The radiochemical stabilities of [^11C]TASP0410457 and [^11C]TASP0434988 in the final formulation were >99 % at 1 h and 40 min, respectively, after the end of radiosynthesis.

H3Rs [4] = test: In vitro autoradiography, monkey brain sections; format: binding, rhesus monkey; conditions: in the presence of 10 μM of unlabelled TASP0410457 or ciproxifan
Procedure: as §1, §2, §3, §4

[5] = Anterior cingulate cortex, monkey brain

For `[11CH3]Oc1ccc(N2C(=O)CCc3cc(OC4CCN(C5CCC5)CC4)ccc32)cn1` [[^11C]TASP0410457], which “V T, Logan graphical analysis, Scan duration 60 min” value (H3Rs [1]; [5]) is on record?
Its value is 18.4 ± 2.7 mL/cm^3.

And the “V T, Logan graphical analysis, Scan duration 70 min” value (H3Rs [1]; [5])?
Its value is 18.6 ± 2.8 mL/cm^3.

And the “V T, Logan graphical analysis, Scan duration 80 min” value (H3Rs [1]; [5])?
The value was 19.1 ± 3.2 mL/cm^3.

What about the “V T, Logan graphical analysis, Scan duration 90 min” value (H3Rs [1]; [5]) of the same compound?
The value was 19.5 ± 3.4 mL/cm^3.

And the “V T, One-tissue compartment model, Scan duration 90 min” value (“V T, One-tissue compartment model” below) (H3Rs [1]; [5])?
The value was 20.3 ± 3.3 mL/cm^3.

What about the “V T, Logan graphical analysis, Scan duration 60 min” value (H3Rs [1]; Cerebellum, monkey brain) of the same compound?
Its value is 12.1 ± 1.2 mL/cm^3.

What about the “V T, Logan graphical analysis, Scan duration 70 min” value (H3Rs [1]; Cerebellum, monkey brain) of the same compound?
The value was 12.4 ± 1.3 mL/cm^3.

And the “V T, Logan graphical analysis, Scan duration 80 min” value (H3Rs [1]; Cerebellum, monkey brain)?
Its value is 12.7 ± 1.5 mL/cm^3.

And the “V T, Logan graphical analysis, Scan duration 90 min” value (H3Rs [1]; Cerebellum, monkey brain)?
Its value is 13.0 ± 1.7 mL/cm^3.

What about the “V T, One-tissue compartment model” value (H3Rs [1]; Cerebellum, monkey brain) of the same compound?
The value was 12.8 ± 1.7 mL/cm^3.

What about the “V T, Logan graphical analysis, Scan duration 60 min” value (H3Rs [1]; Frontal cortex, monkey brain) of the same compound?
Its value is 12.3 ± 1.6 mL/cm^3.

What about the “V T, Logan graphical analysis, Scan duration 70 min” value (H3Rs [1]; Frontal cortex, monkey brain) of the same compound?
Its value is 12.5 ± 1.7 mL/cm^3.

What about the “V T, Logan graphical analysis, Scan duration 80 min” value (H3Rs [1]; Frontal cortex, monkey brain) of the same compound?
The value was 12.8 ± 1.8 mL/cm^3.

What about the “V T, Logan graphical analysis, Scan duration 90 min” value (H3Rs [1]; Frontal cortex, monkey brain) of the same compound?
Its value is 13.0 ± 2.0 mL/cm^3.

And the “V T, One-tissue compartment model” value (H3Rs [1]; Frontal cortex, monkey brain)?
Its value is 13.4 ± 1.8 mL/cm^3.

What about the “V T, Logan graphical analysis, Scan duration 60 min” value (H3Rs [1]; Hippocampus, monkey brain) of the same compound?
Its value is 13.0 ± 1.0 mL/cm^3.

And the “V T, Logan graphical analysis, Scan duration 70 min” value (H3Rs [1]; Hippocampus, monkey brain)?
The value was 13.2 ± 1.0 mL/cm^3.

What about the “V T, Logan graphical analysis, Scan duration 80 min” value (H3Rs [1]; Hippocampus, monkey brain) of the same compound?
Its value is 13.6 ± 1.2 mL/cm^3.

And the “V T, Logan graphical analysis, Scan duration 90 min” value (H3Rs [1]; Hippocampus, monkey brain)?
The value was 13.9 ± 1.4 mL/cm^3.

What about the “V T, One-tissue compartment model” value (H3Rs [1]; Hippocampus, monkey brain) of the same compound?
Its value is 13.9 ± 1.3 mL/cm^3.

And the “V T, Logan graphical analysis, Scan duration 60 min” value (H3Rs [1]; Occipital cortex, monkey brain)?
The value was 11.7 ± 1.6 mL/cm^3.

And the “V T, Logan graphical analysis, Scan duration 70 min” value (H3Rs [1]; Occipital cortex, monkey brain)?
The value was 11.8 ± 1.6 mL/cm^3.

And the “V T, Logan graphical analysis, Scan duration 80 min” value (H3Rs [1]; Occipital cortex, monkey brain)?
The value was 12.0 ± 1.8 mL/cm^3.

What about the “V T, Logan graphical analysis, Scan duration 90 min” value (H3Rs [1]; Occipital cortex, monkey brain) of the same compound?
Its value is 12.1 ± 1.9 mL/cm^3.

What about the “V T, One-tissue compartment model” value (H3Rs [1]; Occipital cortex, monkey brain) of the same compound?
Its value is 12.7 ± 2.0 mL/cm^3.

And the “V T, Logan graphical analysis, Scan duration 60 min” value (H3Rs [1]; Pons-medulla, monkey brain)?
The value was 8.5 ± 0.6 mL/cm^3.

And the “V T, Logan graphical analysis, Scan duration 70 min” value (H3Rs [1]; Pons-medulla, monkey brain)?
Its value is 8.6 ± 0.7 mL/cm^3.

And the “V T, Logan graphical analysis, Scan duration 80 min” value (H3Rs [1]; Pons-medulla, monkey brain)?
Its value is 8.8 ± 0.7 mL/cm^3.

And the “V T, Logan graphical analysis, Scan duration 90 min” value (H3Rs [1]; Pons-medulla, monkey brain)?
Its value is 9.1 ± 0.9 mL/cm^3.

What about the “V T, One-tissue compartment model” value (H3Rs [1]; Pons-medulla, monkey brain) of the same compound?
The value was 8.8 ± 0.9 mL/cm^3.

And the “V T, Logan graphical analysis, Scan duration 60 min” value (H3Rs [1]; Striatum, monkey brain)?
Its value is 21.2 ± 3.0 mL/cm^3.

And the “V T, Logan graphical analysis, Scan duration 70 min” value (H3Rs [1]; Striatum, monkey brain)?
Its value is 21.5 ± 3.0 mL/cm^3.

What about the “V T, Logan graphical analysis, Scan duration 80 min” value (H3Rs [1]; Striatum, monkey brain) of the same compound?
The value was 21.9 ± 3.3 mL/cm^3.

What about the “V T, Logan graphical analysis, Scan duration 90 min” value (H3Rs [1]; Striatum, monkey brain) of the same compound?
The value was 22.6 ± 3.8 mL/cm^3.

And the “V T, One-tissue compartment model” value (H3Rs [1]; Striatum, monkey brain)?
The value was 23.2 ± 3.6 mL/cm^3.

And the “V T, Logan graphical analysis, Scan duration 60 min” value (H3Rs [1]; Temporal cortex, monkey brain)?
Its value is 12.3 ± 1.6 mL/cm^3.

And the “V T, Logan graphical analysis, Scan duration 70 min” value (H3Rs [1]; Temporal cortex, monkey brain)?
Its value is 12.4 ± 1.7 mL/cm^3.

What about the “V T, Logan graphical analysis, Scan duration 80 min” value (H3Rs [1]; Temporal cortex, monkey brain) of the same compound?
Its value is 12.5 ± 1.8 mL/cm^3.

What about the “V T, Logan graphical analysis, Scan duration 90 min” value (H3Rs [1]; Temporal cortex, monkey brain) of the same compound?
Its value is 12.9 ± 2.1 mL/cm^3.

And the “V T, One-tissue compartment model” value (H3Rs [1]; Temporal cortex, monkey brain)?
Its value is 13.3 ± 2.1 mL/cm^3.

What about the “V T, Logan graphical analysis, Scan duration 60 min” value (H3Rs [1]; Thalamus, monkey brain) of the same compound?
The value was 15.1 ± 1.7 mL/cm^3.

What about the “V T, Logan graphical analysis, Scan duration 70 min” value (H3Rs [1]; Thalamus, monkey brain) of the same compound?
Its value is 15.4 ± 1.9 mL/cm^3.

And the “V T, Logan graphical analysis, Scan duration 80 min” value (H3Rs [1]; Thalamus, monkey brain)?
Its value is 15.6 ± 1.9 mL/cm^3.

And the “V T, Logan graphical analysis, Scan duration 90 min” value (H3Rs [1]; Thalamus, monkey brain)?
Its value is 16.0 ± 2.1 mL/cm^3.

What about the “V T, One-tissue compartment model” value (H3Rs [1]; Thalamus, monkey brain) of the same compound?
The value was 16.1 ± 1.8 mL/cm^3.

What about the “time of peak radioligand retention in the striatum” value (H3Rs [1]; anesthetized monkeys) of the same compound?
Its value is “around 30 min”.

What about the “time of plasma radioactivity peak” value (H3Rs [1]; anesthetized monkeys, arterial plasma) of the same compound?
The value was “approximately 1 min”.

What about the “peak SUV in the striatum” value (H3Rs [1]; anesthetized monkeys, mean ± S.D.) of the same compound?
The value was 5.0 ± 0.8.

What about the “striatal VT” value (H3Rs [1]; monkey) of the same compound?
Its value is “exceeded 20 mL/cm^3”.

And the “change of VT values when scan endpoint changed between 90 and 60 min” value (H3Rs [1]; monkey brain, Logan's graphical analysis, relative to values for 90 min)?
The value was at most 7%.

And the “fraction of unmetabolized radioligand of total plasma radioactivity” value (H3Rs [1]; monkey plasma at 90 min)?
The value was 34%.

And the “autoradiographic binding in rat brain sections” value (H3Rs [2])?
The value was “abundant specific binding in the striatum and neocortex”.

What about the “radiochemical stability in the final formulation” value [3] of the same compound?
Its value is over 99%.

And the “binding in the monkey cerebellum and brainstem under blockade” value (H3Rs [4])?
Its value is “noticeably decreased”.
